Test: Binding affinity against Opioid receptor delta 1

SMILES	Ki
CC1(C)SSC[C@@H](NC(=O)[C@@H](N)Cc2ccccc2)C(=O)N[C@@H](Cc2ccccc2)C(=O)N[C@H]1C(=O)O [10-(2-Amino-3-phenyl-propionylamino)-7-benzyl-3,3-dimethyl-6,9-dioxo-1,2-dithia-5,8-diaza-cycloundecane-4-carboxylic acid]	42 nM
CC1(C)SCCSC[C@@H](NC(=O)[C@@H](N)Cc2ccccc2)C(=O)N[C@@H](Cc2ccccc2)C(=O)N[C@H]1C(N)=O [12-(2-Amino-3-phenyl-propionylamino)-9-benzyl-5,5-dimethyl-8,11-dioxo-1,4-dithia-7,10-diaza-cyclotridecane-6-carboxylic acid amide]	1020 nM

Source: BindingDB's records for doi:10.1016/s0960-894x(98)00476-4 (University of Michigan, 1999)
